Eleven molecules from ChEMBL document CHEMBL1121436, “2,4-Diamino-5-benzylpyrimidines as antibacterial agents. 4. 6-Substituted trimethoprim derivatives from phenolic Mannich intermediates. Application to the synthesis of trimethoprim and 3,5-dialkylbenzyl analogues” (J Med Chem, 1980) can be followed below.

Test [1] has as its target T1, Bifunctional dihydrofolate reductase-thymidylate synthase (Plasmodium berghei str. ANKA, UniProt Q27713). The test can be described thus: Compound was tested for its inhibition against dihydrofolate reductase enzyme of Plasmodium berghei. As to conditions: read-out: I50.
Test [2] addresses T2, Dihydrofolate reductase (Rattus norvegicus, UniProt Q920D2).
T2 sequence (Q920D2 whole entry): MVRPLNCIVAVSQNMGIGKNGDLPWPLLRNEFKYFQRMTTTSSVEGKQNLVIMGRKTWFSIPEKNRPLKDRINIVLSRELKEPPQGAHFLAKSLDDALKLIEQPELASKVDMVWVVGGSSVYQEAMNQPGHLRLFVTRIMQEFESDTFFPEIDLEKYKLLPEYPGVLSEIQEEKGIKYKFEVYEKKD
In words: Inhibition against dihydrofolate reductase enzyme of rat liver. The conditions noted are these: read-out: I50.

The target of test [3] is T1, Bifunctional dihydrofolate reductase-thymidylate synthase. The test can be described thus: Tested for the inhibition of Plasmodium berghei dihydrofolate reductase enzyme. The conditions noted are these: read-out: I50.
The test system of test [4] is Shigella dysenteriae. In words: Tested for antibacterial activity against Shigella dysentariae CN1513. The format is functional.
For test [5], the system named is Escherichia coli. The test can be described thus: Tested for antibacterial activity against Escherichia coli CN314. The format is functional.
Test [6] relates to Salmonella. In words: Tested for antibacterial activity against Salmonella typhi CN512. The format is functional, salmonella typhosa.
In test [7] the test system is Proteus vulgaris. The test can be described thus: Tested for antibacterial activity against Proteus vulgaris CN329. The format is functional.
The test system of test [8] is Staphylococcus aureus. The test can be described thus: Tested for antibacterial activity against Staphylococcus aureus CN491. The format is functional.
The subject of test [9] is Streptococcus pyogenes. The test can be described thus: Tested for antibacterial activity against Streptococcus pyogenes CN10. The class given is functional.
Test [10] has as its system Staphylococcus aureus. In words: Tested for antibacterial activity against Staphylococcus aureus CN491.

As usually defined, the MIC is the smallest concentration in the dilution series that meets the test's criterion for growth inhibition. Higher therefore signals a need for much substance.

In brackets after ≈: the same amount, converted by molar mass. Bounds are passed on as bounds.

T1 sequence (Q27713 whole entry): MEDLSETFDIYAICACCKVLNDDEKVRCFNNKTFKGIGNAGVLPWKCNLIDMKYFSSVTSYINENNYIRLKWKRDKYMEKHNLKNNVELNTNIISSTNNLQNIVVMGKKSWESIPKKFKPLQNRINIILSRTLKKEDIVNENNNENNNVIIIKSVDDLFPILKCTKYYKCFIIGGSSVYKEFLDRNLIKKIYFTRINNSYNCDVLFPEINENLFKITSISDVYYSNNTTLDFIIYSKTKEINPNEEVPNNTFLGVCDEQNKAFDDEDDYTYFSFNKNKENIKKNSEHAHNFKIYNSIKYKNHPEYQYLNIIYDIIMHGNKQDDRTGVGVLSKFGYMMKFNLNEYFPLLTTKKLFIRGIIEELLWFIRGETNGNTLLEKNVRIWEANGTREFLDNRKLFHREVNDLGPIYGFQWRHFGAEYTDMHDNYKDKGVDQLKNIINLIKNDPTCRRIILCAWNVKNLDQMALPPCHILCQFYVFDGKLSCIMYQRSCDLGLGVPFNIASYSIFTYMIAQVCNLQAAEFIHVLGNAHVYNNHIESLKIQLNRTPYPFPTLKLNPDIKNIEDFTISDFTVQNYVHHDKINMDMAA

Consider `CCCc1nc(N)nc(N)c1Cc1cc(OC)c(O)c(OC)c1`, for which, in [1], the IC50 amounted to 1.5 µM.
Turning to `COc1cc(Cc2c(N)nc(N)nc2N)cc(OC)c1OC`, in test [2], the IC50 is greater than 900 µM.
The same measure, in the same setting: the same measure for `COc1cc(Cc2c(N)nc(N)nc2-c2ccccc2)cc(OC)c1O`: greater than 45 µM.
Take `COc1cc(Cc2c(N)nc(N)nc2SC)cc(OC)c1OC`: in test [3], the IC50 turned out to be 20 µM.
Regarding `CCCc1nc(N)nc(N)c1Cc1cc(OC)c(OC)c(OC)c1`, in test [2], the IC50 is 1500 µM.
As for `COc1cc(Cc2c(N)nc(N)nc2OC)cc(OC)c1OC`, the MIC is greater than 500 µg/mL in test [4]; greater than 500 µg/mL in [5]; greater than 500 µg/mL in [6]; greater than 500 µg/mL in [7]; 125 µg/mL (≈ 390 µM) in test [8]; 8 µg/mL (≈ 25 µM) in test [9]. In test [2], the IC50 was greater than 100 µM.
As to `COc1cc(Cc2c(N)nc(N)nc2Oc2ccccc2)cc(OC)c1OC`, the MIC in [4], in test [5], in test [6], in test [7], in [10] and in test [9] was greater than 500 µg/mL throughout.
As for `COc1c(C(C)(C)C)cc(Cc2c(N)nc(N)nc2SC)cc1C(C)(C)C`, the MIC in test [4], in test [5], in test [6], in test [7], in test [10] and in test [9] was greater than 500 µg/mL in each case.
As to `COc1cc(Cc2c(C)nc(N)nc2N)cc(OC)c1OC`, the results for the IC50 in test [1] and in test [2] were 0.34 µM and greater than 400 µM, respectively.
In the case of `COc1cc(Cc2c(C)nc(N)nc2N)cc(OC)c1O`, the IC50 in [1] stood at 0.48 µM.
With `COc1cc(Cc2c(N)nc(N)nc2-c2ccccc2)cc(OC)c1OC`, the MIC in test [4] is 125 µg/mL (≈ 341 µM); in test [5], 250 µg/mL (≈ 682 µM); in test [6] it was 250 µg/mL (≈ 682 µM); in test [7], greater than 500 µg/mL; in test [10], 62 µg/mL (≈ 169 µM); in test [9] it was 16 µg/mL (≈ 43.7 µM). Besides, in test [2], the IC50 is greater than 400 µM.
